Broadly, the EC50 is the concentration needed to bring the measured effect to its halfway point.

For the assay, the target named is human APJ receptor (Homo sapiens (Human), UniProt P35414). Put plainly: [35S]GTPγS binding assay on membranes from CHO cells stably expressing human APJ receptor. It is filed as biochemical. To be noted: membranes of CHO cells stably expressing human APJ receptor, read-out: Activity hAPJ SPA EC50 IP. The method, then: The human APJ receptor was cloned by polymerase chain reaction and the gene encoding the receptor was subcloned in pFLAG-CMV™-3 expression vector (Sigma, Saint Louis, Mo. USA) in-house at Amgen. A GTPγS binding assay was performed on membranes prepared from CHO cells stably expressing human APJ receptor. The optimum experimental conditions for the concentrations of GDP, MgCl2, and NaCl in the assay buffer were initially determined. […] Incubation was at RT for 90 min and the microplate was read using a ViewLux™ ultra HTS Microplate Imager (PerkinElmer, Inc.). All the results presented are means of several independent experiments and analyzed by non-linear regression methods using the commercially available program Prism (GraphPad, San Diego, Calif.) providing the EC50 values detailed in Table 27.
Chain of human APJ receptor (P35414 whole entry): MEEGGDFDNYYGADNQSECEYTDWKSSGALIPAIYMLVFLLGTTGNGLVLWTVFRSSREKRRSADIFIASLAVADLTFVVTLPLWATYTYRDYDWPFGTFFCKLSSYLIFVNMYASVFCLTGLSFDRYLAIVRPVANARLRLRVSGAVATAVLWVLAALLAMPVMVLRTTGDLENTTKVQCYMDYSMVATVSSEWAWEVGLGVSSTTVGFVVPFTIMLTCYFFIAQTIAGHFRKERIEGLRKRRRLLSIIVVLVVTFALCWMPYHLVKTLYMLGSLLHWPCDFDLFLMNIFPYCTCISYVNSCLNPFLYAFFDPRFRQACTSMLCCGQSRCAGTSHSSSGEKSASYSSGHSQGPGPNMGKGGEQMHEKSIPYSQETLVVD
In general terms: Binding of GTPγS marks nucleotide exchange on a G protein.
On to `COc1cccc(-c2nnc(NS(=O)(=O)[C@@H](C)[C@H](OC)c3ncc(Cl)cn3)n2[C@@H](C)c2ccon2)n1` (single isomer, unassigned) [Example 265.0, (1R,2S)-1-(5-chloro-2-pyrimidinyl)-1-methoxy-N-(5-(6-methoxy-2-pyridinyl)-4-((1R)-1-(1,2-oxazol-3-yl)ethyl)-4H-1,2,4-triazol-3-yl)-2-propanesulfonamide or (1R,2S)-1-(5-chloro-2-pyrimidinyl)-1-methoxy-N-(5-(6-methoxy-2-pyridinyl)-4-((1S)-1-(1,2-oxazol-3-yl)ethyl)-4H-1,2,4-triazol-3-yl)-2-propanesulfonamide], for which the EC50 was 0.92 nM.
The same measure for `COc1cccc(-c2nnc(NS(=O)(=O)[C@@H](C)[C@H](OC)c3ncc(Cl)cn3)n2[C@H](C)c2cccnc2)n1` (single isomer, unassigned) [Example 350.0, (1R,2S)-1-(5-chloropyrimidin-2-yl)-1-methoxy-N-(5-(6-methoxypyridin-2-yl)-4-((R)-1-(pyridin-3-yl)ethyl)-4H-1,2,4-triazol-3-yl)propane-2-sulfonamide or (1R,2S)-1-(5-chloropyrimidin-2-yl)-1-methoxy-N-(5-(6-methoxypyridin-2-yl)-4-((S)-1-(pyridin-3-yl)ethyl)-4H-1,2,4-triazol-3-yl)propane-2-sulfonamide]: 7.84 nM; for `COc1cccc(-c2nnc(NS(=O)(=O)[C@@H](C)[C@H](OC)c3ncc(Cl)cn3)n2[C@@H](C)c2ncn(C)n2)n1` (single isomer, unassigned) [Example 236.0, (1R,2S)-1-(5-chloro-2-pyrimidinyl)-1-methoxy-N-(5-(6-methoxy-2-pyridinyl)-4-((1R)-1-(1-methyl-1H-1,2,4-triazol-3-yl)ethyl)-4H-1,2,4-triazol-3-yl)-2-propanesulfonamide or (1R,2S)-1-(5-chloro-2-pyrimidinyl)-1-methoxy-N-(5-(6-methoxy-2-pyridinyl)-4-((1S)-1-(1-methyl-1H-1,2,4-triazol-3-yl)ethyl)-4H-1,2,4-triazol-3-yl)-2-propanesulfonamide]: 7.2 nM.
With `COc1cccc(-c2nnc(NS(=O)(=O)[C@@H](C)[C@H](C)c3ncc(Cl)cn3)n2Cc2cnoc2)n1` [Example 187.0, (2S,3R)-3-(5-chloropyrimidin-2-yl)-N-(4-(isoxazol-4-ylmethyl)-5-(6-methoxypyridin-2-yl)-4H-1,2,4-triazol-3-yl)butane-2-sulfonamide], the concentration giving a half-maximal response (EC50) amounted to 650 nM.
The value for `COc1cccc(-c2nnc(NS(=O)(=O)[C@@H](C)[C@@H](OC(C)C)c3ncc(C)cn3)n2Cc2ccon2)n1` [Example 261.0, (1S,2S)-1-isopropoxy-N-(4-(isoxazol-3-ylmethyl)-5-(6-methoxypyridin-2-yl)-4H-1,2,4-triazol-3-yl)-1-(5-methylpyrimidin-2-yl)propane-2-sulfonamide] was 5.2 nM; that for `COc1cccc(-c2nnc(NS(=O)(=O)[C@@H](C)[C@H](C)c3ncc(Cl)cn3)n2[C@@H](C)c2nc(C)no2)n1` (single isomer, unassigned) [Example 246.0, (2S,3R)-3-(5-chloro-2-pyrimidinyl)-N-(5-(6-methoxy-2-pyridinyl)-4-((1R)-1-(5-methyl-1,2,4-oxadiazol-3-yl)ethyl)-4H-1,2,4-triazol-3-yl)-2-butanesulfonamide or (2S,3R)-3-(5-chloro-2-pyrimidinyl)-N-(5-(6-methoxy-2-pyridinyl)-4-((1S)-1-(5-methyl-1,2,4-oxadiazol-3-yl)ethyl)-4H-1,2,4-triazol-3-yl)-2-butanesulfonamide] was 3.4 nM; that for `CC[C@H](c1cc(F)cc(F)c1)n1c(NS(=O)(=O)[C@@H](C)[C@H](OC)c2ncc(Cl)cn2)nnc1-c1cccc(OC)n1` (single isomer, unassigned) [Example 343.0, (1R,2S)-1-(5-chloropyrimidin-2-yl)-N-(4-((R)-1-(3,5-difluorophenyl)propyl)-5-(6-methoxypyridin-2-yl)-4H-1,2,4-triazol-3-yl)-1-methoxypropane-2-sulfonamide or (1R,2S)-1-(5-chloropyrimidin-2-yl)-N-(4-((S)-1-(3,5-difluorophenyl)propyl)-5-(6-methoxypyridin-2-yl)-4H-1,2,4-triazol-3-yl)-1-methoxypropane-2-sulfonamide] was 0.1 nM.
The same measure for `COCCn1c(NS(=O)(=O)[C@@H](C)[C@@H](OC(C)C)c2ncc(Cl)cn2)nnc1-c1cncc(C)c1` [Example 12.0, (1S,2S)-1-(5-chloro-2-pyrimidinyl)-N-(4-(2-methoxyethyl)-5-(5-methyl-3-pyridinyl)-4H-1,2,4-triazol-3-yl)-1-(2-propanyloxy)-2-propanesulfonamiide]: 120 nM.
The same measure for `COC[C@@H](C)n1c(NS(=O)(=O)[C@@H](C)[C@H](OC)c2ncc(Cl)cn2)nnc1-c1cncc(C)c1` [Example 126.0]: 38 nM; for `COc1cnc([C@@H](C)[C@H](C)S(=O)(=O)Nc2nnc(-c3cccc(OC)n3)n2C2CC2)cn1` [Example 118.0]: 31 nM.
`COc1cccc(-c2nnc(NS(=O)(=O)[C@@H](C)[C@H](C)c3ncc(Cl)cn3)n2[C@@H](C)c2c(C)noc2C)n1` (racemic) [Example 314.0, (2S,3R)-3-(5-chloropyrimidin-2-yl)-N-(4-((R)-1-(3,5-dimethylisoxazol-4-yl)ethyl)-5-(6-methoxypyridin-2-yl)-4H-1,2,4-triazol-3-yl)butane-2-sulfonamide or (2S,3R)-3-(5-chloropyrimidin-2-yl)-N-(4-((S)-1-(3,5-dimethylisoxazol-4-yl)ethyl)-5-(6-methoxypyridin-2-yl)-4H-1,2,4-triazol-3-yl)butane-2-sulfonamide]: the EC50 is 33 nM.
The same measure for `COc1cccc(-c2nnc(NS(=O)(=O)[C@@H](C)[C@H](OC)c3ncc(Cl)cn3)n2C[C@H]2CCCCO2)n1` (racemic) [Example 287.0, (1R,2S)-1-(5-chloropyrimidin-2-yl)-1-methoxy-N-(5-(6-methoxypyridin-2-yl)-4-(((R)-tetrahydro-2H-pyran-2-yl)methyl)-4H-1,2,4-triazol-3-yl)propane-2-sulfonamide or (1R,2S)-1-(5-chloropyrimidin-2-yl)-1-methoxy-N-(5-(6-methoxypyridin-2-yl)-4-(((S)-tetrahydro-2H-pyran-2-yl)methyl)-4H-1,2,4-triazol-3-yl)propane-2-sulfonamide]: 5.9 nM; for `COc1cccc(-c2nnc(NS(=O)(=O)[C@@H](C)[C@H](OC)c3ncc(Cl)cn3)n2[C@@H](C)c2ccno2)n1` (single isomer, unassigned) [Example 213.0, (1R,2S)-1-(5-chloro-2-pyrimidinyl)-1-methoxy-N-(5-(6-methoxy-2-pyridinyl)-4-((1R)-1-(1,2-oxazol-5-yl)ethyl)-4H-1,2,4-triazol-3-yl)-2-propanesulfonamide or (1R,2S)-1-(5-chloro-2-pyrimidinyl)-1-methoxy-N-(5-(6-methoxy-2-pyridinyl)-4-((1S)-1-(1,2-oxazol-5-yl)ethyl)-4H-1,2,4-triazol-3-yl)-2-propanesulfonamide]: 0.66 nM.
The same measure for `COc1cccc(-c2nnc(NS(=O)(=O)[C@@H](C)[C@H](OC)c3ncc(Cl)cn3)n2[C@H]2CCCC[C@H]2C)n1` (stereo in doubt) [Example 75.0]: 3 nM; for `COc1cccc(-c2nnc(NS(=O)(=O)[C@@H](C)[C@H](C)c3ncc(Cl)cn3)n2[C@H](c2conc2C)C2CC2)n1` (mixture of isomers) [Example 228.0, (2S,3R)-3-(5-chloro-2-pyrimidinyl)-N-(4-((S)-cyclopropyl(3-methyl-1,2-oxazol-4-yl)methyl)-5-(6-methoxy-2-pyridinyl)-4H-1,2,4-triazol-3-yl)-2-butanesulfonamide and (2S,3R)-3-(5-chloro-2-pyrimidinyl)-N-(4-((R)-cyclopropyl(3-methyl-1,2-oxazol-4-yl)methyl)-5-(6-methoxy-2-pyridinyl)-4H-1,2,4-triazol-3-yl)-2-butanesulfonamide]: 0.88 nM.
Turning to `CC[C@H]([C@@H]1CCCCO1)n1c(NS(=O)(=O)[C@@H](C)[C@H](OC)c2ncc(C)cn2)nnc1-c1cccc(OC)n1` (single isomer, unassigned) [Example 330.0], the EC50 turned out to be 0.23 nM.
Take `COc1cccc(-c2nnc(NS(=O)(=O)[C@@H](C)[C@H](OC)c3ncc(Cl)cn3)n2C2CCCC2)n1` [Example 183.0, (1R,2S)-1-(5-chloro-2-pyrimidinyl)-N-(4-cyclopentyl-5-(6-methoxy-2-pyridinyl)-4H-1,2,4-triazol-3-yl)-1-methoxy-2-propanesulfonamide]: the EC50 turned out to be 4.8 nM.
As to `CC[C@H](c1c(C)noc1C)n1c(NS(=O)(=O)[C@@H](C)[C@@H](OC(C)C)c2ncc(C)cn2)nnc1-c1cccc(OC)n1` (mixture of isomers) [Example 209.0, (1S,2S)-N-(4-((1R)-1-(3,5-dimethyl-1,2-oxazol-4-yl)propyl)-5-(6-methoxy-2-pyridinyl)-4H-1,2,4-triazol-3-yl)-1-(5-methyl-2-pyrimidinyl)-1-(2-propanyloxy)-2-propanesulfonamide and (1S,2S)-N-(4-((1S)-1-(3,5-dimethyl-1,2-oxazol-4-yl)propyl)-5-(6-methoxy-2-pyridinyl)-4H-1,2,4-triazol-3-yl)-1-(5-methyl-2-pyrimidinyl)-1-(2-propanyloxy)-2-propanesulfonamide], the EC50 came out at 14 nM.
With `COc1cccc(-c2nnc(NS(=O)(=O)[C@@H](C)[C@@H](OC(C)C)c3ncc(C)cn3)n2[C@@H](C)[C@H]2CCCO2)n1` (single isomer, unassigned) [Example 273.0], the EC50 was determined as 23 nM.

Source of the values: US10689367B2, “Triazole pyridyl compounds as agonists of the APJ receptor” (AMGEN INC., priority 2016, dated 2020).
